In patent US20230120564A1, “PYRIDO[3,4-D]PYRIMIDINE DERIVATIVE AND THERAPEUTIC PHARMACEUTIC COMPOSITION COMPRISING SAME” (KOREA INSTITUTE OF SCIENCE AND TECHNOLOGY, priority 2020, published 2023):

Assays:
Assay in all cases: full kinase panel biochemical assay
[1] = target: ABL1 (Homo sapiens, UniProt P00519); settings: single concentration of 1 μM; read-out: percent inhibition of ABL1
Description: (§1) In order to measure the protein kinase inhibitory activity (% inhibition) of the compound of the present invention, biochemical assay was performed in the full kinase panel. As a test compound, Compound No. 4 was used. The percent inhibition of each kinase when treated with the test compound at a single concentration of 1 μM was measured, and the residual enzyme activity values (%) of the kinases were calculated. Kinases whose calculated residual enzyme activity values (%) was 30% or less (i.e., kinases inhibited by 70% or more) are as follows: ABL1, ABL2/ARG, ACK1, ARAF, BLK, BMX/ETK, BRAF, BRK, BTK, c-Kit, c-Src, CSK, DDR1, DDR2, EPHA1, EPHA2, EPHA3, EPHA4, EPHA5, EPHA6, EPHA7, EPHA8, EPHB1, EPHB2, EPHB3, EPHB4, ERBB2/HER2, ERBB4/HER4, FGFR1, FGFR2, FGFR3, FGR, FLT1/VEGFR1, FLT4/VEGFR3, FMS, FRK/PTK5, FYN, GCK/MAP4K2, HCK, HGK/MAP4K4, JAK1, JAK2, KDR/VEGFR2, KHS/MAP4K5, LCK, LYN, LYN B, MEKK1, MLK4, MYLK3, NEK5, P38a/MAPK14, P38b/MAPK11, PDGFRa, PDGFRb, PEAK1, RET, RIPK2, RIPK4, SIK2, SRPK1, TAOK3/JIK, TLK1, TNK1, TXK, TYK2, YES/YES1, YSK4/MAP3K19, and ZAK/MLTK.

[2] = target: BRAF (Homo sapiens, UniProt P15056); settings: single concentration of 1 μM; read-out: percent inhibition of BRAF
Description: as §1

[3] = target: CSK (Homo sapiens, UniProt P41240); settings: single concentration of 1 μM; read-out: percent inhibition of CSK
Sequence of CSK (P41240 whole entry): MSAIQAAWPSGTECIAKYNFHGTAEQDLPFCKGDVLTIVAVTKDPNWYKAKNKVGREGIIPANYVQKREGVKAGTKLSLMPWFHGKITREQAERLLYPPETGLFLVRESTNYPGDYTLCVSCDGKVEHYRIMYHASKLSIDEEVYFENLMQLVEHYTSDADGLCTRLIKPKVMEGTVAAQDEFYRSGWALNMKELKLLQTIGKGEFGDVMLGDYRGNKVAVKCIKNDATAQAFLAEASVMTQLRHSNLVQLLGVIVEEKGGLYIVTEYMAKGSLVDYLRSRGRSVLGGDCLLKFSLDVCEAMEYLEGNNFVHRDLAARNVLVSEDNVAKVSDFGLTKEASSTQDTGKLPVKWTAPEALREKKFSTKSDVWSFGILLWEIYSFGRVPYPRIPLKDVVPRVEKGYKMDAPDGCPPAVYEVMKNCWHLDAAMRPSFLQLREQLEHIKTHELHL
Description: as §1

[4] = target: DDR1 (Homo sapiens, UniProt Q08345); settings: single concentration of 1 μM; read-out: percent inhibition of DDR1
Description: as §1

[5] = target: EPHA2 (Homo sapiens, UniProt P29317); settings: single concentration of 1 μM; read-out: percent inhibition of EPHA2
Description: as §1

[6] = target: EPHA3 (Homo sapiens, UniProt P29320); settings: single concentration of 1 μM; read-out: percent inhibition of EPHA3
Description: as §1

[7] = target: EPHA4 (Homo sapiens, UniProt P54764); settings: single concentration of 1 μM; read-out: percent inhibition of EPHA4
Description: as §1

[8] = target: EPHA5 (Homo sapiens, UniProt P54756); settings: single concentration of 1 μM; read-out: percent inhibition of EPHA5
Description: as §1

[9] = target: FGFR1 (Homo sapiens, UniProt P11362); settings: single concentration of 1 μM; read-out: percent inhibition of FGFR1
Description: as §1

[10] = target: HCK (Homo sapiens, UniProt P08631); settings: single concentration of 1 μM; read-out: percent inhibition of HCK
Description: as §1

[11] = target: KHS/MAP4K5 (Homo sapiens, UniProt Q9Y4K4); settings: single concentration of 1 μM; read-out: percent inhibition of KHS/MAP4K5
Description: as §1

[12] = target: LCK (Homo sapiens, UniProt P06239); settings: single concentration of 1 μM; read-out: percent inhibition of LCK
Description: as §1

[13] = target: LYN (Homo sapiens, UniProt P07948); settings: single concentration of 1 μM; read-out: percent inhibition of LYN
Description: as §1

[14] = target: MLK4 (Homo sapiens, UniProt Q5TCX8); settings: single concentration of 1 μM; read-out: percent inhibition of MLK4
Description: as §1

[15] = target: MYLK3 (Homo sapiens, UniProt Q32MK0); settings: single concentration of 1 μM; read-out: percent inhibition of MYLK3
Sequence of MYLK3 (Q32MK0 whole entry): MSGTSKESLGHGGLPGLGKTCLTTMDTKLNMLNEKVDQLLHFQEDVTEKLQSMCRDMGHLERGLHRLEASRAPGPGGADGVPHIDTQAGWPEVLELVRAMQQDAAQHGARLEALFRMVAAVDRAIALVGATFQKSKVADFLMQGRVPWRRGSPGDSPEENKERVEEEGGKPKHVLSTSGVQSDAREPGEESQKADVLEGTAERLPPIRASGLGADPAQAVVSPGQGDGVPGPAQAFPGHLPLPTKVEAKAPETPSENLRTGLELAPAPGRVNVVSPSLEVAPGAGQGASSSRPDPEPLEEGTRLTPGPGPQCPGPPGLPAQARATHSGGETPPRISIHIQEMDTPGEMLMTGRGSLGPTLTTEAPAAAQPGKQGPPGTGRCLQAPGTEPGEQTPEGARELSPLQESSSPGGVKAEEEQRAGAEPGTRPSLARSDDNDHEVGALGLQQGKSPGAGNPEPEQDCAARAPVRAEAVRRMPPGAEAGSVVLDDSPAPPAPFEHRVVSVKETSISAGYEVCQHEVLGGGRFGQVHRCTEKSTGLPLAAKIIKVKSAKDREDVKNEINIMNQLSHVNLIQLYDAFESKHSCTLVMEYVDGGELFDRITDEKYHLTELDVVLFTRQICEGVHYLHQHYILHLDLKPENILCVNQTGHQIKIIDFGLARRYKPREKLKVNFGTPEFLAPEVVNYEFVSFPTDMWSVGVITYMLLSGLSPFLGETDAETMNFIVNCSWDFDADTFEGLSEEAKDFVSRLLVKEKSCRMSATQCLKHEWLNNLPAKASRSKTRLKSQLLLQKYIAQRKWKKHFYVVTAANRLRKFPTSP
Description: as §1

[16] = target: NEK5 (Homo sapiens, UniProt Q6P3R8); settings: single concentration of 1 μM; read-out: percent inhibition of NEK5
Description: as §1

[17] = target: P38a/MAPK14 (Homo sapiens, UniProt Q16539); settings: single concentration of 1 μM; read-out: percent inhibition of P38a/MAPK14
Description: as §1

[18] = target: PEAK1 (Homo sapiens, UniProt Q9H792); settings: single concentration of 1 μM; read-out: percent inhibition of PEAK1
Sequence of PEAK1 (Q9H792 whole entry): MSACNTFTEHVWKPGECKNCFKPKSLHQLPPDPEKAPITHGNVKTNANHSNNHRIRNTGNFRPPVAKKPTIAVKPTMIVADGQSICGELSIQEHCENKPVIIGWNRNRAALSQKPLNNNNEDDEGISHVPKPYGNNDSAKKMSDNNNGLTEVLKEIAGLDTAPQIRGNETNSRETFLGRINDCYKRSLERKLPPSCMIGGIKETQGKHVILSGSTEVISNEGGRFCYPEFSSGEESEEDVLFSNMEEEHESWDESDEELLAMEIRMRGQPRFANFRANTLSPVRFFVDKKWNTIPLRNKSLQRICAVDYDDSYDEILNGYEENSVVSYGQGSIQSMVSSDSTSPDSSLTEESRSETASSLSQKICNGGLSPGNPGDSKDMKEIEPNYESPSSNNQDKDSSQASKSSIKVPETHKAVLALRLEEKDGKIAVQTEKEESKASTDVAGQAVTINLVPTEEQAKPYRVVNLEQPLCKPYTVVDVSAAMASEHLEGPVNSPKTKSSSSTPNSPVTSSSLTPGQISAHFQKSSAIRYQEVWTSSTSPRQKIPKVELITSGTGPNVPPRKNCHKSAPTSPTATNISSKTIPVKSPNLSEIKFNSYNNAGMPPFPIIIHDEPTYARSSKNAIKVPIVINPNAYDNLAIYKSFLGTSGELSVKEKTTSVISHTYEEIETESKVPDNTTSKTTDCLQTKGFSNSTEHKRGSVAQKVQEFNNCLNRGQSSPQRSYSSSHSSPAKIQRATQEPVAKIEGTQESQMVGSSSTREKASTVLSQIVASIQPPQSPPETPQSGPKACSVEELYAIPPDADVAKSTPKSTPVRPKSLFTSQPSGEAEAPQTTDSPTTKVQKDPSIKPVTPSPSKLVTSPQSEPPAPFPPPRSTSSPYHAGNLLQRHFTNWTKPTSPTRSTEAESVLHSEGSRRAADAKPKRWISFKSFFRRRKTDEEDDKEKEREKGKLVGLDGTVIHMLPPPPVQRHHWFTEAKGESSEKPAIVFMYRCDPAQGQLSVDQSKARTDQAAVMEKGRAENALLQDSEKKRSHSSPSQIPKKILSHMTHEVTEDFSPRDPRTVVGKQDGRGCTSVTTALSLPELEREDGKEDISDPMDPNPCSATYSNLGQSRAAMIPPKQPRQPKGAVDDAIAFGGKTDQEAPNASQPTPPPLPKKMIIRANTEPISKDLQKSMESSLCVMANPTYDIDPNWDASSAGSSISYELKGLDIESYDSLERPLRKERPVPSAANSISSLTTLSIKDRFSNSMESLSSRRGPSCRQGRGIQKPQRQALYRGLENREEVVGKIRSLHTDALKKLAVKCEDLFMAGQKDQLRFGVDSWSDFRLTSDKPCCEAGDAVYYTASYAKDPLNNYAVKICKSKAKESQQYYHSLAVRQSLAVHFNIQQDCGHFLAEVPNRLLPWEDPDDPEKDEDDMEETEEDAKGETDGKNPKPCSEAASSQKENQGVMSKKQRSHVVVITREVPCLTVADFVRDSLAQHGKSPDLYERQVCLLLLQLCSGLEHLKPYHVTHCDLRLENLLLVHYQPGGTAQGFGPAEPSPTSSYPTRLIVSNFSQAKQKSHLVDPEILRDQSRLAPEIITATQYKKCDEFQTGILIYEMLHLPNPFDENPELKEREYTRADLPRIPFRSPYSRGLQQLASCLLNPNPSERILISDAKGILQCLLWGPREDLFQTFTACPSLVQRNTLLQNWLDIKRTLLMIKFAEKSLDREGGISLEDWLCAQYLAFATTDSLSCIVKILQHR
Description: as §1

[19] = target: RET (Homo sapiens, UniProt P07949); settings: single concentration of 1 μM; read-out: percent inhibition of RET
Description: as §1

[20] = target: RIPK4 (Homo sapiens, UniProt P57078); settings: single concentration of 1 μM; read-out: percent inhibition of RIPK4
Description: as §1

[21] = target: TLK1 (Homo sapiens, UniProt Q9UKI8); settings: single concentration of 1 μM; read-out: percent inhibition of TLK1
Sequence of TLK1 (Q9UKI8 whole entry): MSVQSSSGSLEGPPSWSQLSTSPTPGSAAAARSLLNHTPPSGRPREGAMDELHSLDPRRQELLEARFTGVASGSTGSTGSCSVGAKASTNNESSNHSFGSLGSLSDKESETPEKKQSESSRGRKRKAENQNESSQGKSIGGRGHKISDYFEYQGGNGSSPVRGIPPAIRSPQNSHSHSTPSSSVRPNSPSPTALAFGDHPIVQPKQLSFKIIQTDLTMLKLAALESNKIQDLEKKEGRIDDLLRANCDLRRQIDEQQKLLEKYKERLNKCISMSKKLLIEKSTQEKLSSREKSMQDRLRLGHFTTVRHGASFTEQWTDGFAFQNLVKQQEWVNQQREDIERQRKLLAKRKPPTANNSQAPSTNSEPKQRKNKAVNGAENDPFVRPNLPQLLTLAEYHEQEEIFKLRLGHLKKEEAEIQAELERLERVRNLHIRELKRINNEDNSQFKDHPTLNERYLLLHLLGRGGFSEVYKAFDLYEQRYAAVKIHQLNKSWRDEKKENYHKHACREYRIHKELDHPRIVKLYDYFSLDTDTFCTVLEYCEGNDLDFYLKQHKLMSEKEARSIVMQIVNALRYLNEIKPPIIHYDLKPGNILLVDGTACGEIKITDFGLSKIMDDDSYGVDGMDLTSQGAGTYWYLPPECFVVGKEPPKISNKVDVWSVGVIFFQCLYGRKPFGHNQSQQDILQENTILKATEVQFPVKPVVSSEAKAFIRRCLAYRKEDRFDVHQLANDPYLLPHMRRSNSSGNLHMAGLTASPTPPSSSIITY
Description: as §1

[22] = target: TNK1 (Homo sapiens, UniProt Q13470); settings: single concentration of 1 μM; read-out: percent inhibition of TNK1
Description: as §1

[23] = target: TYK2 (Homo sapiens, UniProt P29597); settings: single concentration of 1 μM; read-out: percent inhibition of TYK2
Sequence of TYK2 (P29597 whole entry): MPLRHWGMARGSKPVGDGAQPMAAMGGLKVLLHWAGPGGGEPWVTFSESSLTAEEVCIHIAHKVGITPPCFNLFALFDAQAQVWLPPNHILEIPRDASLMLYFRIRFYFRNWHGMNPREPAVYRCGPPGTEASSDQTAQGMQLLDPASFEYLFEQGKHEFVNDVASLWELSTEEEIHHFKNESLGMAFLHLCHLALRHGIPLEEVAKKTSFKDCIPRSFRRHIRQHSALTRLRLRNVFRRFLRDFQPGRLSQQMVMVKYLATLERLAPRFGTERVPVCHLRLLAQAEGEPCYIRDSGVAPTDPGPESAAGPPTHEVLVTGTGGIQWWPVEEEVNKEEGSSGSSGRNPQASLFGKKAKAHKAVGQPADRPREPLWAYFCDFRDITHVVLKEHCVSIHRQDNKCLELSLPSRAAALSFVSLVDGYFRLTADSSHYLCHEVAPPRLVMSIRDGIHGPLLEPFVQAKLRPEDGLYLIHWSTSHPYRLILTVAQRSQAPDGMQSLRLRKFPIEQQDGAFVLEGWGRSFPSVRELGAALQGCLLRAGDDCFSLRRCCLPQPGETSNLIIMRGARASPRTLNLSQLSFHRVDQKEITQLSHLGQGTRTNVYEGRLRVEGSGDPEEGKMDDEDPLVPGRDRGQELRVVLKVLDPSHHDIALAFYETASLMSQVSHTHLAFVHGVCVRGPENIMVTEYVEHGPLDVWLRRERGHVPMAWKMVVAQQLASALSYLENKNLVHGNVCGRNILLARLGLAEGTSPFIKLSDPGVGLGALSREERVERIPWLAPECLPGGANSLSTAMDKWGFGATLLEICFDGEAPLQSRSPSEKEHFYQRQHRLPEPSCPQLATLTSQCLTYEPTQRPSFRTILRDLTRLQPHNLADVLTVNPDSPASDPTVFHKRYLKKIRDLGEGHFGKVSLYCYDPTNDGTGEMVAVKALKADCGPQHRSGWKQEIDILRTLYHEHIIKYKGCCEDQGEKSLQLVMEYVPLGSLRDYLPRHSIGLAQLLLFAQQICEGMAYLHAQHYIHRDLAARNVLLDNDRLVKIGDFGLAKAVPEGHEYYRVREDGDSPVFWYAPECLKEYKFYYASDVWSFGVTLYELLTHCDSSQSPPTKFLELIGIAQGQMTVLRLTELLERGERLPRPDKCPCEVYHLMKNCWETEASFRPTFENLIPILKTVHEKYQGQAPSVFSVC
Description: as §1

[24] = target: c-Src (Homo sapiens, UniProt P12931); settings: single concentration of 1 μM; read-out: percent inhibition of c-Src
Description: as §1

Measured: inhibition at 1 µM

Cc1ccc(Nc2ncc3cc(-c4cc(NC(=O)c5cccc(C(F)(F)F)c5)ccc4C)ncc3n2)cn1 [Compound No. 4, N-(4-methyl-3-(2-((6-methylpyridin-3-yl)amino)pyrido[3,4-d]pyrimidin-6-yl)phenyl)-3-(trifluoromethyl)benzamide]
≥ 70%: all assays above
